Laboratory results: US20230158025A1 (UNIVERSITY OF UTAH RESEARCH FOUNDATION, priority 2020, published 2023)
Where two headings read alike, the source gives them in different places.

Legend:
[1] = molecular target: recombinant mouse GALK1 (Mus musculus, UniProt Q9R0N0); assay: mGALK1 biochemical activity assay (Kinase-Glo Plus, ATP depletion)
In short: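 Recombinant GALK1 (5 nM) with 100 μM galactose; GALK1 turnover read as ATP depletion by Kinase-Glo Plus luminescence. Reaction ran 1 h at room temperature before detection reagent was added.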

[2] = PAMPA permeability
[3] = aqueous kinetic solubility
[4] = molecular target: recombinant human GALK1 (Homo sapiens, UniProt P51570); assay: hGALK1 biochemical activity assay (Kinase-Glo Plus, ATP depletion)
In short: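 Recombinant human or mouse GALK1 (5 nM, with 100 μM galactose, in the added enzyme solution) was run with ATP (35 μM in the substrate solution) in HEPES pH 8.0 buffer. Compounds were tested at 11 1/3-step concentrations from 57.4 μM to 0.97 nM. After 1 h at room temperature, remaining ATP was read by Kinase-Glo Plus luminescence.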

[5] = rat microsomal stability (RLM)
[6] = recombinant mouse GALK1, Kinase-Glo Plus ATP depletion
[7] = recombinant human GALK1, Kinase-Glo Plus ATP depletion
[8] = Tables 2-15, 35 μM ATP, 100 μM galactose, 1 h, bracketed figure after some values is undefined and not reported, read-out: mGALK IC50
[9] = recombinant mouse GALK1, Kinase-Glo Plus ATP depletion, read-out: mGALK
[10] = Tables 2-15, 35 μM ATP, 100 μM galactose, 1 h, bracketed figure after some values (e.g. −1.2) is undefined and not reported, read-out: hGALK IC50
[11] = recombinant human GALK1, Kinase-Glo Plus ATP depletion, read-out: hGALK
[12] = microsomal stability half-life, minutes
[13] = recombinant mouse GALK1, Kinase-Glo Plus ATP depletion, bracketed figure in the cell, e.g. (−1.2), is not defined in the text shown, read-out: mGALK
[14] = recombinant human GALK1, Kinase-Glo Plus ATP depletion, bracketed figure in the cell, e.g. (−1.2), is not defined in the text shown, read-out: hGALK

Chain of recombinant mouse GALK1 (Q9R0N0 whole entry): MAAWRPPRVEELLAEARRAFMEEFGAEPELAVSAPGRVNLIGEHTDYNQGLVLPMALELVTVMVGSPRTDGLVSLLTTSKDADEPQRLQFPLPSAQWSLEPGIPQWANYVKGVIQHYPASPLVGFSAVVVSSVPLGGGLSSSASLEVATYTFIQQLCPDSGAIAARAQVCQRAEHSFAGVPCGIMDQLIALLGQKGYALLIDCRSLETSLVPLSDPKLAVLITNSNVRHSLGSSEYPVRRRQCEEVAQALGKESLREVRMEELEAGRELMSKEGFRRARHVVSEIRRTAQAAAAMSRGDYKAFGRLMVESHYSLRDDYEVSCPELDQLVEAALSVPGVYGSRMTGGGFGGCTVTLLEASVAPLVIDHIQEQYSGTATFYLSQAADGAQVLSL
Chain of recombinant human GALK1 (P51570 whole entry): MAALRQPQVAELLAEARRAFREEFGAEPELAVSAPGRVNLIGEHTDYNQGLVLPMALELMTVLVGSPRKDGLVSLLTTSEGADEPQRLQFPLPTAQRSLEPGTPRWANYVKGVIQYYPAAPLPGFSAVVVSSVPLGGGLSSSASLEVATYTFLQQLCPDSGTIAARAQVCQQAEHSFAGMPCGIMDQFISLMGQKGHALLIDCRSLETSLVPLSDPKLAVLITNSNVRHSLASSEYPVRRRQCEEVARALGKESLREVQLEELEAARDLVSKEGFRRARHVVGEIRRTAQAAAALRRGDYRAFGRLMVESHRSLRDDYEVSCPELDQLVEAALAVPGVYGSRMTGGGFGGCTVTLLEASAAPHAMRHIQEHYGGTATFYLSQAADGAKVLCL

Structure (SMILES) | Perm. (1 × 10^−6 cm/sec) [2] | Sol. [3] | Metab. Stabil. (m) ([5]; microsomal half-life) | IC50 [1, 8] | IC50 [1, 9] | Perm. (1 × 10^−6 cm/sec) ([2]; PAMPA) | Sol. ([3]; aqueous kinetic solubility) | IC50 [4, 10] | IC50 [4, 11] | Metab. Stabil. (m) ([5]; microsomal stability half-life) | also measured
COc1ccc2oc(NC3=NC(c4ccccc4Cl)C(C(=O)Nc4nnc(-c5cccnc5)s4)=C(C)N3)nc2c1 (stereo not shown) [Compound 95, 4-(2-chlorophenyl)-2-((5-methoxybenzo[d]oxazol-2-yl)amino)-6-methyl-N-(5-(pyridin-3-yl)-1,3,4-thiadiazol-2-yl)-1,4-dihydropyrimidine-5-carboxamide] | <19.1 1 × 10^−6 cm/sec | <1 µg/mL | >30 m |  |  |  |  |  |  |  | mGALK (μM) [1, 6]: in- active; hGALK (μM) [4, 7]: in- active
CCn1nc(C)c(CNC(=O)C2=C(C)NC(Nc3nc4ccc(F)c(N)c4o3)=NC2c2ccc(C)cc2Cl)c1F (stereo not shown) [Compound 129, 2-((7-amino-6-fluorobenzo[d]oxazol-2-yl)amino)-4-(2-chloro-4-methylphenyl)-N-((1-ethyl-5-fluoro-3-methyl-1H-pyrazol-4-yl)methyl)-6-methyl-1,4-dihydropyrimidine-5-carboxamide] |  |  |  | 2.17 µM | 2.17 µM | 187.9 1 × 10^−6 cm/sec | 1.53 µg/mL | 0.43 µM | 0.43 µM | 3.55 m | 
CC1=C(C(=O)Nc2nncs2)C2(Cc3ccccc32)N=C(Nc2nc3ccccc3o2)N1 (stereo not shown) [Compound 259, 2′-(benzo[d]oxazol-2-ylamino)-6′-methyl-N-(1,3,4-thiadiazol-2-yl)-1′H-spiro[bicyclo[4.2.0]octane-7,4′-pyrimidine]-1,3,5-triene-5′-carboxamide] |  |  |  |  |  | 190.9 1 × 10^−6 cm/sec | 50.9 µg/mL |  |  |  | mGALK (μM) ([1]; recombinant mouse GALK1, Kinase-Glo Plus ATP depletion, bracketed figure in the cell, e.g. (−1.2), is not defined in the text shown): in- active; hGALK (μM) ([4]; recombinant human GALK1, Kinase-Glo Plus ATP depletion, bracketed figure in the cell, e.g. (−1.2), is not defined in the text shown): in- active; Metab. Stabil. (m) [5, 12]: >30 m
CCn1cc(CNC(=O)C2=C(C)NC(Nc3nc4ccc(F)cc4o3)=NC2c2ccc(C)cc2Cl)cn1 (stereo not shown) [Compound 112, 4-(2-chloro-4-methylphenyl)-N-((1-ethyl-1H-pyrazol-4-yl)methyl)-2-((6-fluorobenzo[d]oxazol-2-yl)amino)-6-methyl-1,4-dihydropyrimidine-5-carboxamide] | <21.9 1 × 10^−6 cm/sec | <1 µg/mL | 9.22 m | 6.85 µM | 6.85 µM |  |  | 1.22 µM | 1.22 µM |  | 
CC1=C(C(=O)NCc2cnn(C)c2)[C@@H](c2ccc(C)cc2Cl)N=C(Nc2nc3cccc(N)c3o2)N1 [Compound 116, (S)-2-((7-aminobenzo[d]oxazol-2-yl)amino)-4-(2-chloro-4-methylphenyl)-6-methyl-N-((1-methyl-1H-pyrazol-4-yl)methyl)-1,4-dihydropyrimidine-5-carboxamide] | 326.9 1 × 10^−6 cm/sec | 21.9 µg/mL | 7.868 m |  | 30.6 µM |  |  |  | 12.2 µM |  | 
CC1=C(C(=O)Nc2nc(CO)cs2)C(c2ccccc2Cl)N=C(Nc2nc3ccccc3o2)N1 (stereo not shown) [Compound 198, 2-(benzo[d]oxazol-2-ylamino)-4-(2-chlorophenyl)-N-(4-(hydroxymethyl)thiazol-2-yl)-6-methyl-1,4-dihydropyrimidine-5-carboxamide] |  |  |  | 19.3 µM | 19.3 µM | 59.9 1 × 10^−6 cm/sec | <1 µg/mL | 17.2 µM | 17.2 µM | >30 m | 
CC1=C(C(=O)Nc2cc(C(=O)O)ccn2)C(c2ccc(C#N)cc2Cl)N=C(Nc2nc3ccc(F)cc3o2)N1 (stereo not shown) [Compound 66, 2-(4-(2-chloro-4-cyanophenyl)-2-((6-fluorobenzo[d]oxazol-2-yl)amino)-6-methyl-1,4-dihydropyrimidine-5-carboxamido)isonicotinic acid] | <1 1 × 10^−6 cm/sec | >81 µg/mL | >30 m | 3.85 µM | 3.85 µM |  |  | 0.61 µM | 0.61 µM |  | 
CC1=C(C(=O)Nc2cc(C(=O)O)ccn2)C(c2ccccc2Cl)N=C(Nc2nc3ccccc3o2)N1C(=O)c1ccccc1 (stereo not shown) [Compound 275, 2-(2-(benzo[d]oxazol-2-ylamino)-1-benzoyl-4-(2-chlorophenyl)-6-methyl-1,4-dihydropyrimidine-5-carboxamido)isonicotinic acid] |  |  |  |  |  | <1 1 × 10^−6 cm/sec | 73.9 µg/mL |  |  |  | IC50 [1, 13]: 7.69 µM; IC50 [4, 14]: 3.43 µM; Metab. Stabil. (m) [5, 12]: >30 m
CC1=C(C(=O)Nc2cccc(Cl)c2)C(c2ccccc2Cl)N=C(Nc2nc3ccccc3o2)N1 (stereo not shown) [Compound 154, 2-(benzo[d]oxazol-2-ylamino)-N-(3-chlorophenyl)-4-(2-chlorophenyl)-6-methyl-1,4-dihydropyrimidine-5-carboxamide] |  |  |  |  |  | <9.2 1 × 10^−6 cm/sec | <1 µg/mL |  |  | >30 m | mGALK IC50 ([1]; Tables 2-15, 35 μM ATP, 100 μM galactose, 1 h, bracketed figure after some values is undefined and not reported): inactive; mGALK (μM) [1, 6]: in- active; hGALK IC50 ([4]; Tables 2-15, 35 μM ATP, 100 μM galactose, 1 h, bracketed figure after some values (e.g. −1.2) is undefined and not reported): inactive; hGALK (μM) [4, 7]: in- active
CC1=C(C(=O)Nc2cc(C(=O)O)ccn2)C(c2ccc(-c3cnc(C)nc3)cc2Cl)N=C(Nc2nc3ccc(F)cc3o2)N1 (stereo not shown) [Compound 71, 2-(4-(2-chloro-4-(2-methylpyrimidin-5-yl)phenyl)-2-((6-fluorobenzo[d]oxazol-2-yl)amino)-6-methyl-1,4-dihydropyrimidine-5-carboxamido)isonicotinic acid] | <1 1 × 10^−6 cm/sec | >90 µg/mL | >30 m | 0.69 µM | 0.69 µM |  |  |  | 0.11 µM |  | 
COCCNC(=O)C1CC(=O)C2=C(C1)NC(Nc1nc3ccccc3o1)=NC2c1ccccc1Cl (stereo not shown) [Compound 280, 2-(benzo[d]oxazol-2-ylamino)-4-(2-chlorophenyl)-N-(2-methoxyethyl)-5-oxo-1,4,5,6,7,8-hexahydroquinazoline-7-carboxamide] |  |  |  |  |  | 747.27 1 × 10^−6 cm/sec | 4.23 µg/mL |  |  |  | IC50 [1, 13]: 4.85 µM; IC50 [4, 14]: 4.85 µM; Metab. Stabil. (m) [5, 12]: 10.16 m
CC1=C(C(=O)Nc2ccc(C(=O)O)cn2)C(c2ccccc2Cl)N=C(Nc2nc3ccc(F)cc3o2)N1 (stereo not shown) [Compound 26, 6-(4-(2-chlorophenyl)-2-((6-fluorobenzo[d]oxazol-2-yl)amino)-6-methyl-1,4-dihydropyrimidine-5-carboxamido)nicotinic acid] | <1 1 × 10^−6 cm/sec | >77 µg/mL | >30 m |  | 3.43 µM |  |  |  | 0.68 µM |  | 
CC1=C(C(=O)Nc2ccc(Br)cc2)C(c2ccccc2Cl)N=C(Nc2nc3ccccc3o2)N1 (stereo not shown) [Compound 150, 2-(benzo[d]oxazol-2-ylamino)-N-(4-bromophenyl)-4-(2-chlorophenyl)-6-methyl-1,4-dihydropyrimidine-5-carboxamide] |  |  |  | 15.3 µM | 15.3 µM | <14.9 1 × 10^−6 cm/sec | <1 µg/mL | 9.68 µM | 9.68 µM | >30 m | 
CC1=C(C(=O)NCc2cnn(C)c2)C(c2ccccc2Cl)N=C(Nc2nc3ccccc3o2)N1 (stereo not shown) [Compound 238, 2-(benzo[d]oxazol-2-ylamino)-4-(2-chlorophenyl)-6-methyl-N-((1-methyl-1H-pyrazol-4-yl)methyl)-1,4-dihydropyrimidine-5-carboxamide] |  |  |  | 12.2 µM | 12.2 µM | 807.7 1 × 10^−6 cm/sec | 24.2 µg/mL | 1.37 µM |  | 15.67 m | 
CC1=C(C(=O)NCc2cnn(C)c2)[C@H](c2ccc(C)cc2Cl)N=C(Nc2nc3cccc(N)c3o2)N1 [Compound 115, (R)-2-((7-aminobenzo[d]oxazol-2-yl)amino)-4-(2-chloro-4-methylphenyl)-6-methyl-N-((1-methyl-1H-pyrazol-4-yl)methyl)-1,4-dihydropyrimidine-5-carboxamide] | 416.8 1 × 10^−6 cm/sec | 17.14 µg/mL | 18.91 m |  | 1.58 µM |  |  |  | 0.13 µM |  | 
CC1=C(C(=O)NCc2cnn(C)c2)C(c2ccccc2Cl)N=C(Nc2nc3cccc(N)c3o2)N1 (stereo not shown) [Compound 82, 2-((7-aminobenzo[d]oxazol-2-yl)amino)-4-(2-chlorophenyl)-6-methyl-N-((1-methyl-1H-pyrazol-4-yl)methyl)-1,4-dihydropyrimidine-5-carboxamide] | 101.9 1 × 10^−6 cm/sec | >72 µg/mL | >30 m |  | 3.43 µM |  |  |  | 0.39 µM |  | 
